Earlier results in patent publication US12544394B2, “Compositions and methods for treatment of fibrosis” (priority 2017, dated 2026).

Assays:
steatosis = settings: vitamin E 400-1000 IU/day for 4-10 months
NASH = settings: patients with biopsy proven NASH, oral vitamin E supplementation
[1] = humans, oral route of administration
liver fibrosis = settings: DLPC fed in chow (U.S. Pat. No. 5,284,835)

Structure (SMILES)	mean AST levels after treatment (steatosis; decreased from 104.+−.61 IU/L, P<0.002)	mean ALT levels after treatment (steatosis; decreased from 175.+−.106 IU/L, P<0.01)	liver histology outcome (NASH)	clinical effect [1]	liver fibrosis (liver fibrosis)
Cc1c(C)c2c(c(C)c1O)CC[C@@](C)(CCC[C@H](C)CCC[C@H](C)CCCC(C)C)O2 [vitamin E, Alpha-tocopherol]	33.+−.11 IU/L	40.+−.26 IU/L	improvement in hepatic steatosis and lobular inflammation but not portal inflammation or fibrosis	–	–
CCCCCCCCCCCC(=O)OC[C@H](COP(=O)([O-])OCC[N+](C)(C)C)OC(=O)CCCCCCCCCCC [DLPC, 1,2-dilauroyl-sn-glycero-3-phosphocholine]	–	–	–	no significant clinical effect	slow liver fibrosis
